The source of these data is patent US9963455B2, “Pyrazolo[1,5-a]pyrimidines as antiviral compounds” (Curovir AB, priority 2014, dated 2018).

One assay has as its system polio virus strain 1. Nature of the assay: organism not typed. To be noted: read-out: % inh. Format: cell-based.
Take `Cc1cc(NCc2ccccc2)n2ncc(-c3ccc(F)cc3)c2n1` [Ex. 18, N-benzyl-3-(4-fluorophenyl)-5-methyl-pyrazolo[1,5-a]pyrimidin-7-amine]: the inhibition at 10 µM was 51%.

In the case of `CCOc1ccc(Nc2cc(C)nc3c(-c4ccc(OC)c(OC)c4)c(C)nn23)cc1` [Ex. 54, 3-(3,4-dimethoxyphenyl)-N-(4-ethoxyphenyl)-2,5-dimethyl-pyrazolo[1,5-a]pyrimidin-7-amine], the inhibition at 1 µM was 89%.

On to `Cc1cc(NCCCn2ccnc2)n2ncc(-c3ccc(Cl)cc3)c2n1` [Ex. 28, 3-(4-chlorophenyl)-N-(3-imidazol-1-ylpropyl)-5-methyl-pyrazolo[1,5-a]pyrimidin-7-amine], for which the inhibition at 10 µM stood at 72%.

As to `Cc1cc(NCCCn2ccnc2)n2nc(C)c(-c3cccs3)c2n1` [Ex. 71, N-(3-imidazol-1-ylpropyl)-2,5-dimethyl-3-(2-thienyl)pyrazolo[1,5-a]pyrimidin-7-amine], the inhibition at 10 µM was 72%.

Regarding `Cc1cc(NCCc2ccccc2)n2nc(C)c(-c3ccc(F)cc3)c2n1` [Ex. 14, 3-(4-fluorophenyl)-2,5-dimethyl-N-phenethyl-pyrazolo[1,5-a]pyrimidin-7-amine], the inhibition at 10 µM was determined as 73%.

For `COc1ccc(-c2c(C)nn3c(NCc4ccnc(C)n4)cc(C)nc23)cc1OC` [Ex. 87, 3-(3,4-dimethoxyphenyl)-2,5-dimethyl-N-[(2-methylpyrimidin-4-yl)methyl]pyrazolo[1,5-a]pyrimidin-7-amine], the inhibition at 0.1 µM is 100%.

With `COc1ccc(CCNc2cc(C)nc3c(-c4ccc(Cl)cc4)cnn23)cc1OC` [Ex. 27, 3-(4-chlorophenyl)-N-[2-(3,4-dimethoxyphenyl)ethyl]-5-methyl-pyrazolo[1,5-a]pyrimidin-7-amine], the inhibition at 10 µM is 35%.

Regarding `Cc1ccc(CCNc2cc(C)nc3c(-c4ccc(Cl)cc4)c(C)nn23)cc1` [Ex. 32, 3-(4-chlorophenyl)-2,5-dimethyl-N-[2-(p-tolyl)ethyl]pyrazolo[1,5-a]pyrimidin-7-amine], the inhibition at 10 µM was 25%.

With `COc1ccc(-c2c(C)nn3c(NCCCn4ccnc4)cc(C)nc23)cc1` [Ex. 67, N-(3-imidazol-1-ylpropyl)-3-(4-methoxyphenyl)-2,5-dimethyl-pyrazolo[1,5-a]pyrimidin-7-amine], the inhibition at 1 µM came to 63%.

In the case of `COc1ccc(-c2c(C)nn3c(Nc4cc(Cl)cc(Cl)c4)cc(C)nc23)cc1OC` [Ex. 64, N-(3,5-dichlorophenyl)-3-(3,4-dimethoxyphenyl)-2,5-dimethyl-pyrazolo[1,5-a]pyrimidin-7-amine], the inhibition at 1 µM worked out at 20%.

As to `COc1ccc(-c2c(C)nn3c(Nc4cccc(C)c4)cc(C)nc23)cc1OC` [Ex. 50, 3-(3,4-dimethoxyphenyl)-2,5-dimethyl-N-(m-tolyl)pyrazolo[1,5-a]pyrimidin-7-amine], the inhibition at 1 µM came out at 81%.

Take `COc1ccc(CCNc2cc(C)nc3c(-c4ccc(F)cc4)c(C)nn23)cc1OC` [Ex. 15, N-[2-(3,4-dimethoxyphenyl)ethyl]-3-(4-fluorophenyl)-2,5-dimethyl-pyrazolo[1,5-a]pyrimidin-7-amine]: the inhibition at 10 µM turned out to be 75%.

For the compound `COc1ccc(-c2c(C)nn3c(Nc4ccc(F)cc4)cc(C)nc23)cc1OC` [Ex. 53, 3-(3,4-dimethoxyphenyl)-N-(4-fluorophenyl)-2,5-dimethyl-pyrazolo[1,5-a]pyrimidin-7-amine], the inhibition at 10 µM came to 84%.

For `CC(C)(C)c1cc(NCCCn2ccnc2)n2ncc(-c3ccccc3)c2n1` [Ex. 23, 5-tert-butyl-N-(3-imidazol-1-ylpropyl)-3-phenyl-pyrazolo[1,5-a]pyrimidin-7-amine], the inhibition at 10 µM worked out at 94%.

Regarding `COc1ccc(-c2c(C)nn3c(NCc4ccncc4)cc(C)nc23)cc1` [Ex. 66, 3-(4-methoxyphenyl)-2,5-dimethyl-N-(4-pyridylmethyl)pyrazolo[1,5-a]pyrimidin-7-amine], the inhibition at 0.01 µM came out at 100%.

Regarding `CCOc1ccc(-c2c(C)nn3c(NCc4ccc(F)cc4)cc(C)nc23)cc1OCC` [Ex. 109, 3-(3,4-diethoxyphenyl)-N-[(4-fluorophenyl)methyl]-2,5-dimethyl-pyrazolo[1,5-a]pyrimidin-7-amine], the inhibition at 1 µM was 88%.

For the compound `Cc1cc(NCc2ccccc2)n2ncc(-c3ccccc3)c2n1` [Ex. 21, N-benzyl-5-methyl-3-phenyl-pyrazolo[1,5-a]pyrimidin-7-amine], the inhibition at 10 µM stood at 78%.

As for `Cc1cc(NCc2cccnc2)n2nc(C)c(-c3ccccc3)c2n1` [Ex. 39, 2,5-dimethyl-3-phenyl-N-(3-pyridylmethyl)pyrazolo[1,5-a]pyrimidin-7-amine], the inhibition at 1 µM came to 71%.

For the compound `COC(=O)c1ccc(-c2c(C)nn3c(NCc4ccc(F)cc4)cc(C)nc23)cc1` [Ex. 107, methyl 4-[7-[(4-fluorophenyl)methylamino]-2,5-dimethyl-pyrazolo[1,5-a]pyrimidin-3-yl]benzoate], the inhibition at 1 µM was found to be 21%.

For `Cc1cc(NCc2ccccn2)n2nc(C)c(-c3ccc(Cl)cc3)c2n1` [Ex. 42, 3-(4-chlorophenyl)-2,5-dimethyl-N-(2-pyridylmethyl)pyrazolo[1,5-a]pyrimidin-7-amine], the inhibition at 1 µM came out at 96%.

In the case of `Cc1cc(NCc2ccncc2)n2nc(C)c(-c3cccs3)c2n1` [Ex. 70, 2,5-dimethyl-N-(4-pyridylmethyl)-3-(2-thienyl)pyrazolo[1,5-a]pyrimidin-7-amine], the inhibition at 10 µM came out at 89%.

As for `Cc1cc(NCCCn2ccnc2)n2nc(C)c(-c3ccc(Cl)cc3)c2n1` [Ex. 44, 3-(4-chlorophenyl)-N-(3-imidazol-1-ylpropyl)-2,5-dimethyl-pyrazolo[1,5-a]pyrimidin-7-amine], the inhibition at 1 µM is 70%.

With `CCCCc1ccc(Nc2cc(C)nc3c(-c4ccc(OC)c(OC)c4)c(C)nn23)cc1` [Ex. 63, N-(4-butylphenyl)-3-(3,4-dimethoxyphenyl)-2,5-dimethyl-pyrazolo[1,5-a]pyrimidin-7-amine], the inhibition at 1 µM was 87%.

`CCCc1cc(NCCCn2ccnc2)n2nc(C)c(-c3ccccc3)c2n1` [Ex. 24, N-(3-imidazol-1-ylpropyl)-2-methyl-3-phenyl-5-propyl-pyrazolo[1,5-a]pyrimidin-7-amine]: the inhibition at 10 µM turned out to be 86%.

As to `COc1ccc(-c2c(C)nn3c(Nc4ccc(NC(C)=O)cc4)cc(C)nc23)cc1OC` [Ex. 58, N-[4-[[3-(3,4-dimethoxyphenyl)-2,5-dimethyl-pyrazolo[1,5-a]pyrimidin-7-yl]amino]phenyl]acetamide], the inhibition at 0.1 µM is 74%.

Turning to `COc1ccc(-c2c(C)nn3c(Nc4ccc(C)cc4)cc(C)nc23)cc1OC` [Ex. 48, 3-(3,4-dimethoxyphenyl)-2,5-dimethyl-N-(p-tolyl)pyrazolo[1,5-a]pyrimidin-7-amine], the inhibition at 1 µM worked out at 79%.

Regarding `CCc1ccc(Nc2cc(C)nc3c(-c4ccc(OC)c(OC)c4)c(C)nn23)cc1` [Ex. 62, 3-(3,4-dimethoxyphenyl)-N-(4-ethylphenyl)-2,5-dimethyl-pyrazolo[1,5-a]pyrimidin-7-amine], the inhibition at 1 µM stood at 97%.

The test system of the next assay is coxsackie B virus strain 2. Nature of the assay: CPE inhibition in mammalian cell culture, Cox-B2. Format: cell-based. To be noted: read-out: % inh.
Take `Cc1cc(NCc2ccccn2)n2nc(C)c(-c3ccc(F)cc3)c2n1` [Ex. 37, 3-(4-fluorophenyl)-2,5-dimethyl-N-(2-pyridylmethyl)pyrazolo[1,5-a]pyrimidin-7-amine]: the inhibition at 10 µM was 78%.

For `COc1ccc(-c2c(C)nn3c(NCCc4ccncc4)cc(C)nc23)cc1OC` [Ex. 89, 3-(3,4-dimethoxyphenyl)-2,5-dimethyl-N-[2-(4-pyridyl)ethyl]pyrazolo[1,5-a]pyrimidin-7-amine], the inhibition at 1 µM worked out at 100%.

As for `COc1ccc(Nc2cc(C)nc3c(-c4ccc(OC)c(OC)c4)c(C)nn23)cc1` [Ex. 49, 3-(3,4-dimethoxyphenyl)-N-(4-methoxyphenyl)-2,5-dimethyl-pyrazolo[1,5-a]pyrimidin-7-amine], the inhibition at 1 µM was determined as 80%.

As for `COc1ccc(CCNc2cc(C)nc3c(-c4ccccc4)cnn23)cc1OC` [Ex. 22, N-[2-(3,4-dimethoxyphenyl)ethyl]-5-methyl-3-phenyl-pyrazolo[1,5-a]pyrimidin-7-amine], the inhibition at 10 µM was determined as 44%.

In the case of `COc1ccc(-c2c(C)nn3c(NCc4cccnc4)cc(C)nc23)cc1` [Ex. 65, 3-(4-methoxyphenyl)-2,5-dimethyl-N-(3-pyridylmethyl)pyrazolo[1,5-a]pyrimidin-7-amine], the inhibition at 1 µM worked out at 91%.

Regarding `COc1ccc(-c2c(C)nn3c(Nc4ccc(Cl)c(Cl)c4)cc(C)nc23)cc1OC` [Ex. 59, N-(3,4-dichlorophenyl)-3-(3,4-dimethoxyphenyl)-2,5-dimethyl-pyrazolo[1,5-a]pyrimidin-7-amine], the inhibition at 10 µM was determined as 88%.

Take `Cc1cc(NCc2cccnc2)n2nc(C)c(-c3cccs3)c2n1` [Ex. 69, 2,5-dimethyl-N-(3-pyridylmethyl)-3-(2-thienyl)pyrazolo[1,5-a]pyrimidin-7-amine]: the inhibition at 10 µM worked out at 65%.

Turning to `Cc1cc(NCCc2ccccc2)n2ncc(-c3ccc(Cl)cc3)c2n1` [Ex. 26, 3-(4-chlorophenyl)-5-methyl-N-phenethyl-pyrazolo[1,5-a]pyrimidin-7-amine], the inhibition at 10 µM was found to be 30%.

Turning to `COc1ccc(CCNc2cc(C)nc3c(-c4ccc(C)cc4)cnn23)cc1OC` [Ex. 29, N-[2-(3,4-dimethoxyphenyl)ethyl]-5-methyl-3-(p-tolyl)pyrazolo[1,5-a]pyrimidin-7-amine], the inhibition at 10 µM worked out at 62%.

A further assay concerns Ljungan virus strain 145. Nature of the assay: CPE inhibition in mammalian cell culture, LV145. Format: cell-based. To be noted: Parechovirus B; LV145, Conc. 1.0 μM.
`COc1ccc(-c2c(C)nn3c(Nc4cc(C)cc(C)c4)cc(C)nc23)cc1OC` [Ex. 56, 3-(3,4-dimethoxyphenyl)-N-(3,5-dimethylphenyl)-2,5-dimethyl-pyrazolo[1,5-a]pyrimidin-7-amine] had an inhibition at 1 µM of 61%.

The assay is the same for the next values; noted with them: Parechovirus B; LV145, Conc. 10.0 μM.
As for `CCc1nn2c(NCCCn3ccnc3)cc(C)nc2c1-c1ccccc1` [Ex. 31, 2-ethyl-N-(3-imidazol-1-ylpropyl)-5-methyl-3-phenyl-pyrazolo[1,5-a]pyrimidin-7-amine], the inhibition at 10 µM is 14%.
